Measured values reported in US9682995B2, “Amino-substituted isothiazoles” (BAYER PHARMA AKTIENGESELLSCHAFT, priority 2013, dated 2017).

Assays:
human kinase Mps-1 = human kinase Mps-1 (Homo sapiens (Human), UniProt P33981); experiment: Mps-1 kinase assay (TR-FRET); type: biochemical; details: 10 μM ATP; read-out: Mps1 avg (IC50 [mol/l])
Experimental: The human kinase Mps-1 phosphorylates a biotinylated substrate peptide. Detection of the phosphorylated product is achieved by time-resolved fluorescence resonance energy transfer (TR-FRET) from Europium-labelled anti-phospho-Serine/Threonine antibody as donor to streptavidin labelled with cross-linked allophycocyanin (SA-XLent) as acceptor. Compounds are tested for their inhibition of the kinase activity.
N-terminally GST-tagged human full length recombinant Mps-1 kinase (purchased from Invitrogen, Karslruhe, Germany, cat. no PV4071) was used. As substrate for the kinase reaction a biotinylated peptide of the amino-acid sequence biotin-Ahx-PWDPDDADITEILG (C-terminus in amide form, purchased from Biosyntan GmbH, Berlin) was used.
For the assay 50 nl of a 100-fold concentrated solution of the test compound in DMSO was pipetted into a black low volume 384 well microtiter plate (Greiner Bio-One, Frickenhausen, Germany), 2 μl of a solution of Mps-1 in assay buffer [0.1 mM sodium-ortho-vanadate, 10 mM MgCl2, 2 mM DTT, 25 mM Hepes pH 7.7, 0.05% BSA (w/v), 0.001% Pluronic F-127] were added and the mixture was incubated for 15 min at 22° C. to allow pre-binding of the test compounds to Mps-1 before the start of the kinase reaction. Then the kinase reaction was started by the addition of 3 μl of a solution of 16.7 μM adenosine-tri-phosphate (ATP, 16.7 μM=>final conc. in the 5 μl assay volume is 10 μM) and peptide substrate (1.67 μM=>final conc. in the 5 μl assay volume is 1 μM) in assay buffer and the resulting mixture was incubated for a reaction time of 60 min at 22° C. The concentration of Mps-1 in the assay was adjusted to the activity of the enzyme lot and was chosen appropriate to have the assay in the linear range, typical enzyme concentrations were in the range of about 0.5 nM (final conc. in the 5 μl assay volume). The reaction was stopped by the addition of 5 μl of a solution of TR-FRET detection reagents (100 mM Hepes pH 7.4, 0.1% BSA, 40 mM EDTA, 140 nM Streptavidin-XLent [#61GSTXLB, Fa. Cis Biointernational, Marcoule, France], 1.5 nM anti-phospho(Ser/Thr)-Europium-antibody [#AD0180, PerkinElmer LAS, Rodgau-Jugesheim, Germany]. Instead of the 1.5 nM anti-phospho(Ser/Thr)-Europium-antibody a mixture of 2 nM unlabeled anti-phospho ser/thr-pro antibody MPM-2 [Millipore cat. #05-368] and 1 nM LANCE EU-W1024 labeled anti-mouse IgG antibody [Perkin-Elmer, product no. AD0077] can be used).
The resulting mixture was incubated 1 h at 22° C. to allow the binding of the phosphorylated peptide to the anti-phospho(Ser/Thr)-Europium-antibody. Subsequently the amount of phosphorylated substrate was evaluated by measurement of the resonance energy transfer from the Europium-labelled anti-phospho(Ser/Thr) antibody to the Streptavidin-XLent. Therefore, the fluorescence emissions at 620 nm and 665 nm after excitation at 350 nm was measured in a Viewlux TR-FRET reader (PerkinElmer LAS, Rodgau-Jugesheim, Germany). The “blank-corrected normalized ratio” (a Viewlux specific readout, similar to the traditional ratio of the emissions at 665 nm and at 622 nm, in which blank and Eu-donor crosstalk are subtracted from the 665 nm signal before the ratio is calculated) was taken as the measure for the amount of phosphorylated substrate. The data were normalised (enzyme reaction without inhibitor=0% inhibition, all other assay components but no enzyme=100% inhibition).

[1] = test system: spindle assembly checkpoint; experiment: SAC-Formation - Paclitaxel-Induced Assay; type: cell-based; details: Homo sapiens; HeLa cells, paclitaxel 0.05 μM, 24 h, phosphorylated histone H3 on serine 10
Description: The spindle assembly checkpoint assures the proper segregation of chromosomes during mitosis. Upon entry into mitosis, chromosomes begin to condensate which is accompanied by the phosphorylation of histone H3 on serine 10. Dephosphorylation of histone H3 on serine 10 begins in anaphase and ends at early telophase. Accordingly, phosphorylation of histone H3 on serine 10 can be utilized as a marker of cells in mitosis. Nocodazole is a microtubule destabilizing substance. Paclitaxel is a microtubule stabilizing compound. Thus, nocodazole as well as paclitaxel interfere with microtubule dynamics and mobilize the spindle assembly checkpoint. […] The mitotic breakthrough can be detected by the decrease of cells with phosphorylation of histone H3 on serine 10. This decline is used as a marker to determine the capability of compounds of the present invention to induce a mitotic breakthrough. The typical morphological alteration of nuclei with a prematurely completed mitosis after SAC-inhibition can be monitored via image analysis routines supporting those findings.
The nocodazole and paclitaxel variations were used to focus on compounds that are capable of inhibiting a SAC induced by both microtubule destabilization as well as microtubule stabilization. When SAC inducing agents and compounds are given simultaneously, inhibitors that effectively block the SAC during formation or abrogation are identified. When cells are incubated with a SAC inducing agent and the SAC interfering compound is given after a defined time, inhibitors are identified that effectively block SAC abrogation.
Cultivated cells of the human cervical tumor cell line HeLa (ATCC CCL-2) were plated at a density of 1000 cells/well in a 1536-well microtiter plate in 2 μl PAA Ham's F12 Medium supplemented with 1% (v/v) glutamine, 1% (v/v) penicillin, 1% (v/v) streptomycin and 10% (v/v) fetal calf serum. After incubation overnight at 37° C., 10 μl/well paclitaxel at a final concentration of 0.05 μM were added to cells. Test compounds solubilized in dimethyl sulfoxide (DMSO) were added at various concentrations (0 μM, as well as in the range of 0.005 μM-20 μM; the final concentration of the solvent DMSO was 0.5% (v/v)). Cells were incubated for 24 h at 37° C. in the presence of test compounds in combination with paclitaxel. Thereafter, cells were fixed in 4% (v/v) paraformaldehyde in phosphate buffered saline (PBS) at 4° C. overnight then permeabilized in 0.1% (v/v) Triton X™ 100 in PBS at room temperature for 20 min and blocked in 0.5% (v/v) bovine serum albumin (BSA) in PBS at room temperature for 15 min. After washing with PBS, 5 μl/well antibody solution (anti-phospho-histone H3 clone 3H10, FITC; Millipore, Cat #16-222; 1:1000 dilution) was added to cells, which were incubated for 2 h at room temperature. Afterwards, cells were washed with PBS and 5 μl/well solution of HOECHST 33342 dye (5 μg/ml) was added to cells and cells were incubated 15 min at room temperature in the dark. Cells were washed twice with PBS then covered with PBS and stored at 4° C. until analysis. Images were acquired with a PERKIN ELMER OPERA™ High-Content Analysis reader. Images were analyzed with image analysis software MetaXpress™ from Molecular devices utilizing the Mitotic Index application module. In this assay both labels HOECHST 33342 and phosphorylated Histone H3 on serine 10 were measured. HOECHST 33342 labels the DNA and is used to count the cell number. The staining of phosphorylated Histone H3 on serine 10 determines the number of mitotic cells. […] Otherwise cells were arrested at G2/M phase of the cell cycle progression. The raw assay data were further analyzed by four-parametric hill equation using Genedata's Assay Analyzer and Condoseo software.

Chain of human kinase Mps-1 (P33981 whole entry): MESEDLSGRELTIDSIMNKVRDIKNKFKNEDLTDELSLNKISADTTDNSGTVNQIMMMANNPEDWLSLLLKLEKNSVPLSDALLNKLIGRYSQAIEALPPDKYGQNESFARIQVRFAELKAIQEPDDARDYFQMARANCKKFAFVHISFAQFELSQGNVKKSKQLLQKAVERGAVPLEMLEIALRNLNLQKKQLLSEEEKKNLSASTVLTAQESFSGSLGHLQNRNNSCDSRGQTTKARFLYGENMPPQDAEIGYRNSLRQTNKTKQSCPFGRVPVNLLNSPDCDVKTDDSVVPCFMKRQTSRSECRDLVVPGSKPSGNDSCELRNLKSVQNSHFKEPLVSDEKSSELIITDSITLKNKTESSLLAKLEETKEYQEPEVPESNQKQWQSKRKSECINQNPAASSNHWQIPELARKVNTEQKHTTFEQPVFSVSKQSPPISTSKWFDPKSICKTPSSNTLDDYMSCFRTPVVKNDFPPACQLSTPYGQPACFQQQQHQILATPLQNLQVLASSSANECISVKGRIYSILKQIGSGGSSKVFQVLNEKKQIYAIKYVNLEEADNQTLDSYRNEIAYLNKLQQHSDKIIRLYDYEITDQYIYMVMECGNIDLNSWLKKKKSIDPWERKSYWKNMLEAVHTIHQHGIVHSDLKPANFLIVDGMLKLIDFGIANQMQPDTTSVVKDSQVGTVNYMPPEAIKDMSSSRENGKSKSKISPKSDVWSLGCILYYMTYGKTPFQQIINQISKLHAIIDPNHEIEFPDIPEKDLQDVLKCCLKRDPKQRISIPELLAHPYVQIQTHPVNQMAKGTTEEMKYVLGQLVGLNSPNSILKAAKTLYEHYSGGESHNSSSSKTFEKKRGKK

IC50 (human kinase Mps-1)	IC50 [1]	Structure (SMILES)
> 20 µM	1.2 µM	COC(=O)c1cnc(Nc2snc(C)c2C(=O)Nc2ccc(OC)nc2)cn1 [Example 32, Methyl 5-({4-[(6-methoxypyridin-3-yl)carbamoyl]-3-methyl-1,2-thiazol-5-yl}amino)-pyrazine-2-carboxylate]
> 20 µM	1.9 µM	Cc1nsc(Nc2cnc(C(=O)N(C)C)cn2)c1C(=O)Nc1ccc(F)c(F)c1 [Example 109, 5-({4-[(3,4-Difluorophenyl)carbamoyl]-3-methyl-1,2-thiazol-5-yl}amino)-N,N-dimethylpyrazine-2-carboxamide]
–	1.8 µM	Cc1nsc(Nc2cc(C#N)ccn2)c1C(=O)Nc1ccc(Oc2ccccc2)nc1 [Example 111, 5-[(4-Cyanopyridin-2-yl)amino]-3-methyl-N-(6-phenoxypyridin-3-yl)-1,2-thiazole-4-carboxamide]
12 µM	20 µM	Cc1nsc(Nc2cncc(N(C)C)n2)c1C(=O)Nc1ccc(F)c(F)c1 [Example 105, N-(3,4-Difluorophenyl)-5-{[6-(dimethylamino)pyrazin-2-yl]amino}-3-methyl-1,2-thiazole-4-carboxamide]
> 20 µM	19 µM	CCc1ccnc(Nc2snc(C)c2C(=O)Nc2ccccc2CC)n1 [Example 17, N-(2-Ethylphenyl)-5-[(4-ethylpyrimidin-2-yl)amino]-3-methyl-1,2-thiazole-4-carboxamide]
> 20 µM	> 20 µM	CCc1ccccc1NC(=O)c1c(C)nsc1Nc1nccc(OC)n1 [Example 16, N-(2-Ethylphenyl)-5-[(4-methoxypyrimidin-2-yl)amino]-3-methyl-1,2-thiazole-4-carboxamide]
> 20 µM	0.75 µM	COc1ncc(NC(=O)c2c(C)nsc2Nc2cnc3ccccc3n2)cc1C [Example 121, N-(6-Methoxy-5-methylpyridin-3-yl)-3-methyl-5-(quinoxalin-2-ylamino)-1,2-thiazole-4-carboxamide]
> 20 µM	18 µM	CCc1ccccc1NC(=O)c1c(C)nsc1Nc1ncccc1C#N [Example 8, 5-[(3-Cyanopyridin-2-yl)amino]-N-(2-ethylphenyl)-3-methyl-1,2-thiazole-4-carboxamide]
18 µM	0.39 µM	Cc1nsc(Nc2ccn3nccc3n2)c1C(=O)Nc1ccc(F)c(F)c1 [Example 57, N-(3,4-Difluorophenyl)-3-methyl-5-(pyrazolo[1,5-a]pyrimidin-5-ylamino)-1,2-thiazole-4-carboxamide]
> 20 µM	0.81 µM	CCc1ccccc1NC(=O)c1c(C)nsc1Nc1cnc2ccc(Cl)cc2n1 [Example 41, 5-[(7-Chloroquinoxalin-2-yl)amino]-N-(2-ethylphenyl)-3-methyl-1,2-thiazole-4-carboxamide]
> 20 µM	0.034 µM	Cc1nsc(Nc2cnc3cc(F)ccc3n2)c1C(=O)Nc1ccc(F)c(F)c1 [Example 46, N-(3,4-Difluorophenyl)-5-[(6-fluoroquinoxalin-2-yl)amino]-3-methyl-1,2-thiazole-4-carboxamide]
> 20 µM	2 µM	COc1ccc(Oc2ccc(NC(=O)c3c(C)nsc3Nc3cc(C#N)ccn3)cn2)cc1 [Example 117, 5-[(4-Cyanopyridin-2-yl)amino]-N-[6-(4-methoxyphenoxy)pyridin-3-yl]-3-methyl-1,2-thiazole-4-carboxamide]
> 20 µM	> 20 µM	CCc1ccccc1NC(=O)c1c(C)nsc1Nc1cc(NC)ncn1 [Example 15, N-(2-Ethylphenyl)-3-methyl-5-{[6-(methylamino)pyrimidin-4-yl]amino}-1,2-thiazole-4-carboxamide]
–	0.12 µM	Cc1nsc(Nc2cc(C#N)ccn2)c1C(=O)Nc1ccc(Oc2ccc(F)cc2F)nc1 [Example 114, 5-[(4-Cyanopyridin-2-yl)amino]-N-[6-(2,4-difluorophenoxy)pyridin-3-yl]-3-methyl-1,2-thiazole-4-carboxamide]
